The values that follow come from ChEMBL document CHEMBL1201862, “PubChem BioAssay data set” (2004).

Test systems include COLO 205; EKVX; M14; Malme-3M; NCI-H460; NCI-H522; OVCAR-5; OVCAR-8; RPMI-8226; RXF 393; SF-295; SF-539; SK-MEL-5; SN12C; SNB-19; SNB-75; SW-620; U-251; UACC-257; SR.
Holding throughout (assay): NCI anticancer screen, dose series, 48 h

Each structure is given as a SMILES string.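 How tested: cells in 96-well plates exposed to compound for 48 hours at five concentrations. GI50 = concentration required for 50% inhibition of growth.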 Activity calls are given as the source filed them. Cut-off read from the data, not from the text of the source: active = GI50 up to about 1.1 µM and inactive = higher. Bounds are passed on as bounds.

On to `COc1ccc(C2C3=C(COC3=O)Oc3cc4c(cc32)OCO4)cc1OC` (stereo unspecified), for which the GI50 with COLO 205 is 0.879 µM (active); in the test with EKVX, 3.61 µM (inactive); with M14, 1.52 µM (inactive); with Malme-3M, 0.682 µM (active); with NCI-H460, 0.547 µM (active); in the test on NCI-H522 it was 0.437 µM (active). Moreover, the GI50 in the test with OVCAR-5 is 8.97 µM (inactive); with OVCAR-8, 4.05 µM (inactive); in the test on RPMI-8226, 0.447 µM (active); with RXF 393, 0.891 µM (active); in the test with SF-295 it was 0.716 µM (active); in the test on SF-539 it was 0.547 µM (active). Besides, the GI50 in the test on SK-MEL-5 is 0.489 µM (active); in the test on SN12C it was 5.26 µM (inactive); in the test on SNB-19, 0.716 µM (active); with SNB-75 it was 1.82 µM (inactive); with SW-620 it was 0.492 µM (active); in the test with U-251, 0.785 µM (active). In the test with UACC-257, the GI50 was 6.87 µM (inactive).
As to `OCC(O)C(O)C(O)c1nnn[nH]1` (stereo unspecified), the GI50 with COLO 205, in the test with EKVX, in the test with M14, in the test on Malme-3M, in the test on NCI-H460 and in the test on NCI-H522 was > 100 µM (inactive) in each case. Moreover, the GI50 in the test on OVCAR-5, in the test with OVCAR-8, with RPMI-8226, in the test on SF-295, in the test on SF-539 and with SK-MEL-5 was > 100 µM (inactive) throughout. In addition, the GI50 in the test with SN12C, in the test with SNB-75, in the test with SR, with SW-620 and in the test with U-251 was > 100 µM (inactive) in each case.
`C[n+]1c2ccccc2c(CNc2ccc(S(=O)(=O)N=C(N)N)cc2)c2ccccc21`: the GI50 in the test with EKVX was 21 µM (inactive); in the test on M14, 6.05 µM (inactive); in the test on Malme-3M it was 13.6 µM (inactive); in the test on NCI-H460, 0.61 µM (active); with NCI-H522 it was 9.77 µM (inactive); with OVCAR-5, 43.7 µM (inactive). The GI50 in the test with OVCAR-8 was 9.66 µM (inactive); in the test with RPMI-8226, 2.7 µM (inactive); in the test with RXF 393, 15.1 µM (inactive); with SF-295 it was 3.6 µM (inactive); with SF-539 it was 3.24 µM (inactive); with SK-MEL-5 it was 6.92 µM (inactive). Further, the GI50 with SN12C was 3.16 µM (inactive); with SNB-19, 4.05 µM (inactive); in the test on SNB-75, 4.13 µM (inactive); in the test with SW-620, 6.95 µM (inactive); in the test on U-251, 5.14 µM (inactive); with UACC-257, 16 µM (inactive).
Regarding `CCN(CC)C1=Nc2ccccc2-n2c(C)cnc2C1`, the GI50 in the test on COLO 205, in the test on EKVX, in the test with M14, in the test with Malme-3M, in the test with NCI-H460 and with NCI-H522 was > 100 µM (inactive) each time. The GI50 is > 100 µM (inactive) with OVCAR-5; > 100 µM (inactive) in the test with OVCAR-8; 95.5 µM (inactive) in the test on RPMI-8226; > 100 µM (inactive) in the test on RXF 393; > 100 µM (inactive) with SF-295; > 100 µM (inactive) in the test on SF-539. Also, the GI50 with SK-MEL-5, in the test on SN12C, with SNB-19, in the test on SNB-75, in the test with SW-620 and in the test with U-251 was > 100 µM (inactive) throughout. Besides, the GI50 in the test with UACC-257 was > 61.5 µM (inactive).
On to `N#CC(C#N)=C1NN=C(Cl)c2ccccc21`, for which the GI50 in the test on COLO 205 was > 100 µM (inactive); in the test on EKVX, > 100 µM (inactive); in the test with M14, > 100 µM (inactive); with Malme-3M it was 30.3 µM (inactive); with NCI-H460, > 100 µM (inactive); in the test on NCI-H522, 72.1 µM (inactive). Further, the GI50 is > 100 µM (inactive) in the test with OVCAR-5; > 100 µM (inactive) in the test on OVCAR-8; 57.3 µM (inactive) with RPMI-8226; > 100 µM (inactive) in the test on RXF 393; > 100 µM (inactive) in the test on SF-295; 85.5 µM (inactive) in the test with SF-539. Further, the GI50 is > 100 µM (inactive) in the test on SK-MEL-5; 96.4 µM (inactive) with SN12C; 33.9 µM (inactive) with SNB-75; > 100 µM (inactive) with SW-620; 96.4 µM (inactive) in the test on U-251; 98.6 µM (inactive) in the test with UACC-257.
`COC(=O)c1c(OC)cccc1C(=O)O`: the GI50 in the test on COLO 205, with EKVX, in the test on M14, in the test with Malme-3M, with NCI-H460 and in the test on NCI-H522 was > 100 µM (inactive) throughout. Further, the GI50 with OVCAR-5, in the test on OVCAR-8, in the test with RPMI-8226, with RXF 393, with SF-295 and in the test on SF-539 was > 100 µM (inactive) in each case. The GI50 with SK-MEL-5, in the test with SN12C, with SNB-19, in the test on SNB-75, in the test on SW-620 and with U-251 was > 100 µM (inactive) throughout. For the same compound, in the test with UACC-257, the GI50 is > 100 µM (inactive).
Consider `O=S1(=O)OCCOS(=O)(=O)C1I`, for which the GI50 in the test with COLO 205, in the test on EKVX, in the test with M14, in the test on Malme-3M, with NCI-H522 and in the test on OVCAR-8 was > 100 µM (inactive) in each case. For the same compound, the GI50 is > 100 µM (inactive) with RPMI-8226; 56.2 µM (inactive) in the test with SF-295; > 100 µM (inactive) in the test on SF-539; 66.8 µM (inactive) in the test with SK-MEL-5; > 100 µM (inactive) in the test with SN12C; 77.4 µM (inactive) in the test with SNB-19. The GI50 was > 100 µM (inactive) with SNB-75, 91.8 µM (inactive) in the test with SR, > 100 µM (inactive) in the test on SW-620 and > 100 µM (inactive) in the test with UACC-257.
Regarding `O=C1/C(=C/c2ccc(Cl)cc2)NC(=S)N1CN1CCCCC1`, the GI50 in the test with COLO 205 is 28 µM (inactive); in the test on EKVX, 28.2 µM (inactive); with M14, 35.1 µM (inactive); in the test with Malme-3M it was 21.5 µM (inactive); in the test with NCI-H522 it was 18 µM (inactive); in the test with OVCAR-5 it was 37.5 µM (inactive). Also, the GI50 in the test with OVCAR-8 is 36.7 µM (inactive); in the test on RPMI-8226, 20 µM (inactive); in the test with SF-295, 36.9 µM (inactive); with SK-MEL-5, 31 µM (inactive); with SN12C, 40.6 µM (inactive); in the test with SNB-19 it was 17.7 µM (inactive). Besides, the GI50 in the test on SNB-75 is 36.3 µM (inactive); in the test on SR, 34.8 µM (inactive); in the test with SW-620 it was 20.7 µM (inactive); in the test on U-251, 47.2 µM (inactive).
On to `CC(=O)OCC12C(OC(C)=O)C[C@@H](C)C3(CC(c4ccoc4)OC3=O)C1CCC(OC(C)=O)C21CO1` (stereo partly specified), for which the GI50 in the test with COLO 205, in the test on EKVX, in the test with M14, with Malme-3M, in the test on NCI-H460 and in the test with NCI-H522 was > 100 µM (inactive) each time. For the same compound, the GI50 with OVCAR-5, in the test with OVCAR-8, with RPMI-8226, in the test on RXF 393, in the test with SF-295 and in the test on SF-539 was > 100 µM (inactive) throughout. Besides, the GI50 in the test on SK-MEL-5, in the test with SN12C, in the test with SNB-19, in the test on SNB-75, in the test with SW-620 and with U-251 was > 100 µM (inactive) throughout. The GI50 in the test on UACC-257 is > 100 µM (inactive).
Turning to `C[C@H]1NC(=O)C2CCCCN2C(=O)CN(C)C(=O)CNC(=O)C2CCCCN2C(=O)[C@@H](NC(=O)c2nc3ccccc3cc2O)[C@@H](C)NC(=O)C2CCCCN2C(=O)CN(C)C(=O)CNC(=O)[C@@H]2CCCCN2C(=O)C1NC(=O)c1nc2ccccc2cc1O` (stereo partly specified), the GI50 in the test on COLO 205 was 0.252 µM (active); in the test on EKVX it was 0.668 µM (active); with M14 it was 0.241 µM (active); in the test with Malme-3M, 0.182 µM (active); in the test with NCI-H460, 0.188 µM (active); with NCI-H522, 0.106 µM (active). Further, the GI50 in the test on OVCAR-5 is 1.91 µM (inactive); in the test on OVCAR-8, 0.193 µM (active); in the test with RPMI-8226 it was 0.274 µM (active); in the test on RXF 393, 0.0463 µM (active); with SF-295, 0.0258 µM (active); in the test with SF-539, 0.201 µM (active). Besides, the GI50 is 0.155 µM (active) in the test with SK-MEL-5; 0.313 µM (active) with SN12C; 0.241 µM (active) with SNB-19; 0.0598 µM (active) in the test on SNB-75; 0.225 µM (active) with SW-620; 0.0153 µM (active) with U-251. Besides, the GI50 in the test with UACC-257 was 0.185 µM (active).
As to `C=CCN1CCN([C@H](c2ccc(C(=O)N(CC)CC)cc2)c2cccc(OC)c2)CC1`, the GI50 in the test with COLO 205, with EKVX, in the test on M14, in the test with Malme-3M, in the test on NCI-H522 and in the test on OVCAR-5 was > 25 µM (inactive) throughout. Moreover, the GI50 in the test with OVCAR-8, with RPMI-8226, in the test on SF-295, in the test on SF-539, with SK-MEL-5 and in the test on SN12C was > 25 µM (inactive) in each case. For the same compound, the GI50 in the test on SNB-19, in the test with SR, in the test with SW-620 and with U-251 was > 25 µM (inactive) in each case.
